These results are taken from PMC8042770, “Odorant Receptors for Detecting Flowering Plant Cues Are Functionally Conserved across Moths and Butterflies” (Molecular Biology and Evolution, 2020).

“Also recorded” adds a separate entry of the source.

In experiment [1] the test system is SlitOR14. Further details: method as in de Fouchier et al. 2017. The conditions noted are these: ref de Fouchier et al. 2017; cited from earlier work.
The test system of experiment [2] is H. armigera third instar larvae. Kind of experiment: Petri dish choice assay, third instar larvae. The format is in vivo, Helicoverpa armigera. How it is done: Our results provide strong evidence that PAA, via its detection by HarmOR42, is an important host plant cue in both larval and adult stages of H. armigera.
For assessing larval behavior to PAA, the experiments were performed in closed plastic Petri dishes of 15 cm diameter (fig. 6D) as in [Poivet et al. (2013)] with some modifications. To ascertain the choice zone, we tracked the behavior trajectory of larvae to a regular diet. A piece of regular diet nutrition was placed at one of the opposite ends of the dish along the diameter. Ten third instar larvae were placed in the middle of the dish. The location of larvae was marked every 10 min for 1 h. Four replications were performed. Most of the larvae made choices within 40 min, so this time point was selected for choice statistics. For the choice behavior test, PAA and paraffin oil (solvent) were respectively added onto a piece of 1 × 1 cm filter paper and the papers were arranged at opposite ends. The two-choice zones were delineated by 4-cm radius half circles centered at each of the filter papers. The choice indexes (CI) were calculated using the formula: CI = (P − C)/T, where P represents the number of larvae that entered the PAA choice zone, C represents the number of larvae that entered the solvent zone, and T represents the total number of larvae in the test (ten larvae). We first determined the efficient test dose using three different dilutions of PAA (0.1, 1, and 10 μg) against wild-type larvae. The CI of larvae to PAA was compared with a blank (solvent on each side of the dish). […] Therefore, we used 1 μg of PAA to test the choice behavior of mutant larvae. Ten replicates were performed for each test.

Experiment [3] deals with H. armigera moth antennae. Kind of experiment: Electroantennography (EAG), wild-type vs HarmOR42 knock-out moths. It is filed as in vivo, Helicoverpa armigera. Particulars: single odorants, 1 μg. From the text:
We next conducted a loss-of-function study by generating a HarmOR42-lacking H. armigera strain by CRISPR/Cas9 targeting the first coding exon. Homozygous mutants were obtained with a large segment deletion of 203 bp and a 6-bp nonhomologous insertion in the genome (fig. 6B), introducing a premature stop codon in the coding sequence. […] The most likely hypothesis is that HarmOR42 is not the major receptor for sensing this compound in H. armigera. As a control, we tested the response of male moths to the sex pheromone component Z11-16: Ald that is not a ligand of HarmOR42. As expected, we observed no difference between the EAG responses of mutant and wild-type moths to this compound.
The antennae of 2- to 3-day-old virgin male and female moths were cut at the base of the flagellum. After removing the tip, one antenna was inserted between two glass electrodes filled with 0.1 M KCl solution. In each test, a 10-μl solution of each odorant was added onto a piece of filter paper (0.5 cm × 0.5 cm) and then inserted into a Pasteur pipette. About 100 ng/μl stock solutions of individual odorants and different doses of the mixture IAC were prepared with paraffin oil. A continuous airflow of 30 ml/s was produced by a stimulus controller (CS-55, Syntech, Kirchzarten, Germany). Odor stimulation was controlled by a puff of purified air (0.2 s at 10 ml/s airflow) from the CS-55. EAG signals were amplified with a 10× AC/DC headstage preamplifier (Syntech) and further acquired with an Intelligent Data Acquisition Controller (IDAC-4-USB, Syntech) ([Cao et al. 2016]). The signals were recorded, monitored, and analyzed using Syntech EAG-software (Syntech, Germany). The EAG response values for each compound were calculated by subtracting the value of the same antennae corresponding to a solvent blank of paraffin oil.

Experiment [4] addresses HarmOR42 (Helicoverpa armigera, UniProt A0A7T3KAF6). Kind of experiment: Xenopus oocyte two-electrode voltage clamp, HarmOR42 + Orco. The format is cell-based. The source says:
In preliminary screening, we used a high dosage (10^−4 M) of odorants. […] Most functional ORs responded robustly to multiple odorants. The strongest response (up to ∼6,000 nanoampere, nA) we detected was that of HarmOR42 toward the aromatic compound PAA. Further, the response profiles of the 28 HarmORs appeared to be highly differentiated, with no apparent overlap in their tuning spectra (with the exception of HarmOR12 and 36) according to functional cluster analysis (fig. 1A).
In order to expand our analysis on the response properties of HarmORs, we conducted dose–response analyses for the 28 functional HarmORs. […] Six HarmORs (OR3, 22, 48, 50, 56, and 66) could not be activated by any ligand at 10^−5 M. For the other 22 HarmORs, dose–response curves were generated and EC50 values of their major ligands were calculated (fig. 2A and supplementary table S2, Supplementary Material online). The HarmOR repertoire was highly efficient in terpene detection, since the lowest EC50 values were obtained for such compounds. Many of these terpenes have been proposed to be defensive chemicals of plants. […] DMNT is also one of the oviposition deterring compounds found in larval frass of some Lepidoptera species such as S. littoralis ([Anderson et al. 1993]).
Functional characterization of individual ORs was performed by heterologous expression in Xenopus oocytes combined with a two-electrode voltage-clamp system ([Wang et al. 2010]). Briefly, the full-length gene of each OR and Orco were subcloned into the eukaryotic expression vector pT7TS. cRNAs were generated from linearized expression vectors using the mMESSAGE mMACHINE T7 kit (Ambion, Austin, TX). Then, the cRNA mixture of ORx and Orco (27.6 ng each) was injected (Nanoliter 2010, WPI Inc., Sarasota, FL) into oocytes (stage V–VII). The respective Orcos of different species were used for functional studies of OR42 orthologs except for the four butterfly species (V. tameamea, P. xuthus, D. plexippus, and P. rapae), in which we used the Orco from P. xuthus. After incubation in nutrient solution at 18 °C for 3–5 days, the response profile of each oocyte to multiple plant odorants was recorded via a two-electrode voltage clamp (OC-725C oocyte clamp, Warner Instruments, Hamden, CT) at a holding potential of −80 mV. Data were acquired by using a Digidata 1440 A and were analyzed by pCLAMP 10.2 software (Axon Instruments Inc., Union City, CA).
Stock solutions of each odorant were prepared at 1 M using DMSO as a solvent, and each odorant was diluted in 1× Ringer’s solution to the indicated concentrations for electrophysiological recording. For functional screening of each HarmOR, a panel of 67 odorants belonging to three types of chemical classes: terpenes, aromatics, and aliphatics (short-chain fatty acid) were used (supplementary table S1, Supplementary Material online). For functional studies of OR42 orthologs from different species, six odorants including PAA, benzaldehyde, (E)-2-hexen-1-al, cinnamaldehyde, 2-phenylethanol, and heptanal were used.
Background: In two-electrode clamp one electrode senses voltage and the other passes current.

Sequence of HarmOR42 (A0A7T3KAF6 entry or part of it): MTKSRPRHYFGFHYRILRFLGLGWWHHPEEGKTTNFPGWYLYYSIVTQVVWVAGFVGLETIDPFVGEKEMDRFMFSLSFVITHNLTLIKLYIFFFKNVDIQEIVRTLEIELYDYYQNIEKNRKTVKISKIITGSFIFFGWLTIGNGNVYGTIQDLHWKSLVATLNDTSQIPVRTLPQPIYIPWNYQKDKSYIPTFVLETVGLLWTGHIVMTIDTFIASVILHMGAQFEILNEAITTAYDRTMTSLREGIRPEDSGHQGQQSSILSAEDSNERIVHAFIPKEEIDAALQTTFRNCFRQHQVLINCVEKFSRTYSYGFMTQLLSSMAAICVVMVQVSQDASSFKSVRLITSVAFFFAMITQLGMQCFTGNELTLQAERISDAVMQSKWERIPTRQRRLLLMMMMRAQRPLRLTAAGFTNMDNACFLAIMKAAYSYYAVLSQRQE

For `O=CCc1ccccc1` [Phenylacetaldehyde], the “response of SlitOR14” value in experiment [1] is “high specificity and sensitivity”. For the same compound, the “preference of HarmOR42 knock-out mutant larvae” value in experiment [2] (third instar, knock-out, 1 μg) was “lost their preference”. Also, in experiment [2] (third instar, wild type, 1 μg, 40 min), the “attractive effect on wild-type larvae” value is given as “significantly attracted”. Moreover, in experiment [2] (wild-type larvae, 0.1, 1 and 10 μg tested), the “dose giving the most positive choice” value was 1 µg. Also, the “EAG response of HarmOR42 knock-out mutants compared with wild-type moths” value in experiment [3] is on record as “significantly decreased”. The EC50 in experiment [4] was found to be 48 µM. Moreover, the “ligand tuning of HarmOR42” value in experiment [4] (67 odorants at 10^−4 M, listed as PAA) was “largest response; also recorded: high specificity and sensitivity”. Also, in experiment [4] (HarmOR42, odorant 10^−4 M, strongest response detected), the current response is ~6,000 nA.

As a reminder, the EC50 is the concentration giving half of the maximal effect.
